Here are results for 3 compounds from patent publication US20210137897A1, “TOPICAL mTOR INHIBITORS FOR CUTANEOUS PROLIFERATIVE AND VASCULAR CONDITIONS” (GEORGETOWN UNIVERSITY, priority 2019, published 2021).

Structures are written as SMILES.

Series [1] has as its system Langerhans cell histiocytosis, multisystem disease. The following applies: in combination with a single dose of methylprednisolone; cited from earlier work.
The nature of series [2]: Sirolimus blood levels during topical treatment of the non-LCH patient. It is filed as in vivo, human. Particulars: at 1 month; topical rapamycin (1%) ointment to left face. The text has this:
Topical rapamycin (1%) compounded in ointment was initiated to the left face with the right face serving as a control. Sirolimus blood levels were negative at 1 month.

In series [3] the test system is venolymphatic malformation. The series is described as follows: Case report: topical 1% sirolimus cream in venolymphatic malformation. The series is classed as in vivo, human. The text has this:
A person presented with a birthmark on the left thigh, present since birth. […] Clinically, it appeared most consistent with a mixed venolymphatic malformation, possibly with a small capillary component to it. Over the last few years, it began scabbing and occasionally bleeding at the surface. The deeper areas sometimes caused a throbbing pain. A decision was made to start treatment with topical 1% sirolimus cream twice a day. After 1.5 to 2 months treatment, the birthmark started to improve. Before starting topical sirolimus, they had painful episodes (6/10 severity) 2-3× per week that lasted 15-20 minutes. […] Additionally, overall the lesion was much flatter since starting the topical sirolimus. Their quality of life improved now that they were is in much less pain.
Previous reports have shown effectiveness of oral sirolimus in the treatment of venolymphatic malformations; however, to the best of inventor's knowledge, topical treatment has never been reported. This patient's venolymphatic malformation improved both symptomatically and improved in appearance with topical 1% rapamycin treatment. […] Additionally, inventor expects that all superficial or cutaneous vascular malformations and cutaenous vascular conditions would respond to treatment with topical mTOR inhibitor.

Series [4] has as its system capillary malformation-arteriovenous malformation (CM-AVM) syndrome. The series is described as follows: Case report: topical 1% rapamycin cream in CM-AVM syndrome. It is filed as in vivo, human. The following applies: topical 1% rapamycin cream twice a day to the face. An excerpt: A person presented with several well demarcated pink to slightly tan patches with perilesional halos/rims of pallor scattered on their body, including one on their face. Many of those birthmarks were present since birth or at least since a very young age. The patient's parent also had similar-appearing birthmarks. The patient was otherwise well. Genetic testing confirmed a pathogenic variant identified in RASA1 gene consistent with capillary malformation-arteriovenous malformation (CM-AVM) syndrome. Per the patient and their parent's interest in a topical treatment, off-label use of topical 1% rapamycin cream was used twice a day to the lesion on the face.

Series [5] has as its system keloids. The series is described as follows: Case report: 1% topical rapamycin on keloidal, contracted burn scar. It is filed as in vivo, human. Particulars: 1% topical rapamycin one to two times a day on thigh scar. The text has this: As an adjuvant treatment, they treated their worst keloidal, contracted scar on their thigh with 1% topical rapamycin one to two times a day.

The test system of series [6] is confluent and reticulated papillomatosis (CARP). The series is described as follows: Case report: topical 1% rapamycin cream in confluent and reticulated papillomatosis. The series is classed as in vivo, human. Particulars: 1% rapamycin cream twice a day for 3 months. The text has this:
FIG. 1A is a photographic image of the chest of a patient afflicted with confluent and reticulated papillomatosis (CARP) before starting 3 months' treatment with topically applied 1% rapamycin (sirolimus).
FIG. 1B is a photographic image of the chest of the patient in FIG. 1A following 3 months' treatment with topically applied 1% rapamycin (sirolimus).
A person was initially diagnosed with CARP in October 2015 when they presented with numerous hyperpigmented, slightly velvety macules with a fine overlying scale coalescing into reticulated and confluent patches on their chest, neck, and upper back. […] They then embarked upon a course of topical 1% rapamycin cream applied to affected areas twice a day for 3 months. […] Pre- and post treatment photographs are presented as FIGS. 1A and 1B, respectively.

For series [7] the following is noted: cited from earlier work.

With `COc1cc([C@@H]2c3cc4c(cc3[C@@H](O[C@@H]3O[C@@H]5CO[C@@H](C)O[C@H]5[C@H](O)[C@H]3O)[C@H]3COC(=O)[C@H]23)OCO4)cc(OC)c1O` [etoposide], in series [1], the disease response is 65%, the reactivation was 55%, the survival was 83% and the toxicity was 58%.
For `CC[C@]1(O)C[C@@H]2CN(CCc3c([nH]c4ccccc34)[C@@](C(=O)OC)(c3cc4c(cc3OC)N(C)[C@H]3[C@@](O)(C(=O)OC)[C@H](OC(C)=O)[C@]5(CC)C=CCN6CC[C@]43[C@@H]65)C2)C1` [vinblastine], in series [1], the disease response is reported as 58%, the reactivation was 61%, the survival is recorded as 76% and the toxicity is listed as 47%.
Consider `CO[C@H]1C[C@@H]2CC[C@@H](C)[C@@](O)(O2)C(=O)C(=O)N2CCCC[C@H]2C(=O)O[C@H]([C@H](C)C[C@@H]2CC[C@@H](O)[C@H](OC)C2)CC(=O)[C@H](C)/C=C(\C)[C@@H](O)[C@@H](OC)C(=O)[C@H](C)C[C@H](C)/C=C/C=C/C=C/1C` [sirolimus, Sirolimus], for which the Sirolimus blood levels result in series [2] was “negative”. Also, in series [3] (after 1-2 months of topical 1% sirolimus, before treatment 15-20 minutes), the “duration of pain episode” value is given as “about 10 minutes”. In addition, the “treatment time until the birthmark started to improve” value in series [3] (person, topical 1% sirolimus cream twice a day) fell in the range of 1.5 to 2 months. Also, the tolerability entry in series [4] is reported as “tolerated well without side effects”; in series [5], “tolerated the treatment well without any known side effects”. Besides, the “local tolerability at the site of application” value in series [6] is “denied having any itching, burning, or pain”. For the same compound, the water solubility entry in series [7] is listed as “poorly water soluble”.
